The source made the active and inactive calls. No rule for the calls is given here.
System: CCRIS mutagenicity, Ames/micronucleus/aberration tests
Assay: CCRIS mutagenicity studies

## COc1cc(CNC(=O)CCCC/C=C/C(C)C)ccc1O
End Point: IN VITRO CHROMOSOMAL ABERRATIONS, Test System: HUMAN LYMPHOCYTES, Metabolic Activation: NONE
  mutagenic call: inactive; negative
End Point: IN VITRO CHROMOSOMAL ABERRATIONS, Test System: HUMAN LYMPHOCYTES, Metabolic Activation: RAT LIVER S-9, AROCLOR 1254
  mutagenic call: inactive; negative
End Point: IN VITRO CHROMOSOMAL ABERRATIONS, Test System: HUMAN LYMPHOCYTES, Metabolic Activation: S-9
  mutagenic call: inactive; negative
End Point: IN VITRO CHROMOSOMAL ABERRATIONS, Test System: HUMAN PERIPHERAL BLOOD LYMPHOCYTES, Metabolic Activation: NONE
  mutagenic call: inactive; negative
End Point: IN VITRO CHROMOSOMAL ABERRATIONS, Test System: HUMAN PERIPHERAL BLOOD LYMPHOCYTES, Metabolic Activation: RAT, LIVER, S-9, AROCLOR 1254
  mutagenic call: inactive; negative
End Point: IN VIVO MICRONUCLEUS, Test System: BONE MARROW ERYTHROCYTES, Species: MOUSE, Strain/Sex: CD-1/FEMALE, Route: GAVAGE
  mutagenic call: inactive; negative
End Point: IN VIVO MICRONUCLEUS, Test System: BONE MARROW ERYTHROCYTES, Species: MOUSE, Strain/Sex: CD-1/MALE, Route: GAVAGE
  mutagenic call: inactive; negative
End Point: IN VIVO MICRONUCLEUS, Test System: BONE MARROW POLYCHROMATIC ERYTHROCYTES, Species: MOUSE, Strain/Sex: CD-1/MALE, FEMALE, Route: GAVAGE
  mutagenic call: inactive; negative
Test System: AMES SALMONELLA TYPHIMURIUM, Strain/Indicator: TA97, Metabolic Activation: NONE, Method: PREINCUBATION (20 MIN)
  mutagenic call: inactive; negative
Test System: AMES SALMONELLA TYPHIMURIUM, Strain/Indicator: TA97, Metabolic Activation: S-9, Method: PREINCUBATION (20 MIN)
  mutagenic call: inactive; negative
Test System: AMES SALMONELLA TYPHIMURIUM, Strain/Indicator: TA98, Metabolic Activation: HAMSTER, LIVER, S-9, AROCLOR 1254, Method: STANDARD PLATE
  mutagenic call: inactive; negative
Test System: AMES SALMONELLA TYPHIMURIUM, Strain/Indicator: TA98, Metabolic Activation: NONE, Method: DIRECT PLATE
  mutagenic call: inactive; negative
Test System: AMES SALMONELLA TYPHIMURIUM, Strain/Indicator: TA98, Metabolic Activation: NONE, Method: PREINCUBATION
  mutagenic call: inactive; negative
Test System: AMES SALMONELLA TYPHIMURIUM, Strain/Indicator: TA98, Metabolic Activation: NONE, Method: PREINCUBATION (20 MIN)
  mutagenic call: inactive; negative
Test System: AMES SALMONELLA TYPHIMURIUM, Strain/Indicator: TA98, Metabolic Activation: RAT LIVER S-9, AROCLOR 1254, Method: PREINCUBATION
  mutagenic call: inactive; negative
Test System: AMES SALMONELLA TYPHIMURIUM, Strain/Indicator: TA98, Metabolic Activation: RAT LIVER S-9, AROCLOR 1254, Method: STANDARD PLATE
  mutagenic call: inactive; negative
Test System: AMES SALMONELLA TYPHIMURIUM, Strain/Indicator: TA98, Metabolic Activation: RAT, LIVER, S-9, AROCLOR 1254, Method: DIRECT PLATE
  mutagenic call: inactive; negative
Test System: AMES SALMONELLA TYPHIMURIUM, Strain/Indicator: TA98, Metabolic Activation: RAT, LIVER, S-9, AROCLOR 1254, Method: PREINCUBATION
  mutagenic call: inactive; negative
Test System: AMES SALMONELLA TYPHIMURIUM, Strain/Indicator: TA98, Metabolic Activation: RAT, LIVER, S-9, AROCLOR, Method: STANDARD PLATE
  mutagenic call: active; positive
Test System: AMES SALMONELLA TYPHIMURIUM, Strain/Indicator: TA98, Metabolic Activation: S-9, Method: PREINCUBATION (20 MIN)
  mutagenic call: inactive; negative
Test System: AMES SALMONELLA TYPHIMURIUM, Strain/Indicator: TA100, Metabolic Activation: HAMSTER, LIVER, S-9, AROCLOR 1254, Method: STANDARD PLATE
  mutagenic call: inactive; negative
Test System: AMES SALMONELLA TYPHIMURIUM, Strain/Indicator: TA100, Metabolic Activation: NONE, Method: DIRECT PLATE
  mutagenic call: inactive; negative
Test System: AMES SALMONELLA TYPHIMURIUM, Strain/Indicator: TA100, Metabolic Activation: NONE, Method: PREINCUBATION
  mutagenic call: inactive; negative
Test System: AMES SALMONELLA TYPHIMURIUM, Strain/Indicator: TA100, Metabolic Activation: NONE, Method: STANDARD PLATE
  mutagenic call: inactive; negative
Test System: AMES SALMONELLA TYPHIMURIUM, Strain/Indicator: TA100, Metabolic Activation: RAT LIVER S-9, AROCLOR 1254, Method: PREINCUBATION
  mutagenic call: inactive; negative
Test System: AMES SALMONELLA TYPHIMURIUM, Strain/Indicator: TA100, Metabolic Activation: RAT LIVER S-9, AROCLOR 1254, Method: STANDARD PLATE
  mutagenic call: inactive; negative
Test System: AMES SALMONELLA TYPHIMURIUM, Strain/Indicator: TA100, Metabolic Activation: RAT, LIVER, S-9, AROCLOR 1254, Method: DIRECT PLATE
  mutagenic call: inactive; negative
Test System: AMES SALMONELLA TYPHIMURIUM, Strain/Indicator: TA100, Metabolic Activation: RAT, LIVER, S-9, AROCLOR 1254, Method: PREINCUBATION
  mutagenic call: inactive; negative
Test System: AMES SALMONELLA TYPHIMURIUM, Strain/Indicator: TA100, Metabolic Activation: S-9 (0.25 ML), Method: PREINCUBATION (20 MIN)
  mutagenic call: inactive; negative
Test System: AMES SALMONELLA TYPHIMURIUM, Strain/Indicator: TA100, Metabolic Activation: S-9 (0.5 ML), Method: PREINCUBATION (60 MIN)
  mutagenic call: inactive; negative
Test System: AMES SALMONELLA TYPHIMURIUM, Strain/Indicator: TA1535, Metabolic Activation: HAMSTER, LIVER, S-9, AROCLOR 1254, Method: STANDARD PLATE
  mutagenic call: inactive; negative
Test System: AMES SALMONELLA TYPHIMURIUM, Strain/Indicator: TA1535, Metabolic Activation: NONE, Method: DIRECT PLATE
  mutagenic call: inactive; negative
Test System: AMES SALMONELLA TYPHIMURIUM, Strain/Indicator: TA1535, Metabolic Activation: NONE, Method: PREINCUBATION
  mutagenic call: inactive; negative
Test System: AMES SALMONELLA TYPHIMURIUM, Strain/Indicator: TA1535, Metabolic Activation: RAT LIVER S-9, AROCLOR 1254, Method: PREINCUBATION
  mutagenic call: inactive; negative
Test System: AMES SALMONELLA TYPHIMURIUM, Strain/Indicator: TA1535, Metabolic Activation: RAT LIVER S-9, AROCLOR 1254, Method: STANDARD PLATE
  mutagenic call: inactive; negative
Test System: AMES SALMONELLA TYPHIMURIUM, Strain/Indicator: TA1535, Metabolic Activation: RAT, LIVER, S-9, AROCLOR 1254, Method: DIRECT PLATE
  mutagenic call: inactive; negative
Test System: AMES SALMONELLA TYPHIMURIUM, Strain/Indicator: TA1535, Metabolic Activation: RAT, LIVER, S-9, AROCLOR 1254, Method: PREINCUBATION
  mutagenic call: inactive; negative
Test System: AMES SALMONELLA TYPHIMURIUM, Strain/Indicator: TA1537, Metabolic Activation: HAMSTER, LIVER, S-9, AROCLOR 1254, Method: STANDARD PLATE
  mutagenic call: inactive; negative
Test System: AMES SALMONELLA TYPHIMURIUM, Strain/Indicator: TA1537, Metabolic Activation: NONE, Method: DIRECT PLATE
  mutagenic call: inactive; negative
Test System: AMES SALMONELLA TYPHIMURIUM, Strain/Indicator: TA1537, Metabolic Activation: NONE, Method: PREINCUBATION
  mutagenic call: inactive; negative
Test System: AMES SALMONELLA TYPHIMURIUM, Strain/Indicator: TA1537, Metabolic Activation: NONE, Method: STANDARD PLATE
  mutagenic call: inactive; negative
Test System: AMES SALMONELLA TYPHIMURIUM, Strain/Indicator: TA1537, Metabolic Activation: RAT LIVER S-9, AROCLOR 1254, Method: PREINCUBATION
  mutagenic call: inactive; negative
Test System: AMES SALMONELLA TYPHIMURIUM, Strain/Indicator: TA1537, Metabolic Activation: RAT LIVER S-9, AROCLOR 1254, Method: STANDARD PLATE
  mutagenic call: inactive; negative
Test System: AMES SALMONELLA TYPHIMURIUM, Strain/Indicator: TA1537, Metabolic Activation: RAT, LIVER, S-9, AROCLOR 1254, Method: DIRECT PLATE
  mutagenic call: inactive; negative
Test System: AMES SALMONELLA TYPHIMURIUM, Strain/Indicator: TA1537, Metabolic Activation: RAT, LIVER, S-9, AROCLOR 1254, Method: PREINCUBATION
  mutagenic call: inactive; negative
Test System: AMES SALMONELLA TYPHIMURIUM, Strain/Indicator: TA1537, Metabolic Activation: RAT, LIVER, S-9, AROCLOR 1254, Method: STANDARD PLATE
  mutagenic call: inactive; negative
Test System: AMES SALMONELLA TYPHIMURIUM, Strain/Indicator: TA1538, Metabolic Activation: HAMSTER, LIVER, S-9, AROCLOR 1254, Method: STANDARD PLATE
  mutagenic call: inactive; negative
Test System: AMES SALMONELLA TYPHIMURIUM, Strain/Indicator: TA1538, Metabolic Activation: NONE, Method: STANDARD PLATE
  mutagenic call: inactive; negative
Test System: AMES SALMONELLA TYPHIMURIUM, Strain/Indicator: TA1538, Metabolic Activation: RAT, LIVER, S-9, AROCLOR 1254, Method: STANDARD PLATE
  mutagenic call: inactive; negative
Test System: CHINESE HAMSTER V-79, Strain/Indicator: V-79/8-AZAGUANINE, Metabolic Activation: NONE
  mutagenic call: inactive; negative
Test System: CHINESE HAMSTER V-79, Strain/Indicator: V-79/8-AZAGUANINE, Metabolic Activation: RAT, LIVER, S-9, AROCLOR
  mutagenic call: inactive; negative
Test System: E. COLI, Strain/Indicator: WP2UVRA, Metabolic Activation: NONE, Method: PREINCUBATION
  mutagenic call: inactive; negative
Test System: E. COLI, Strain/Indicator: WP2UVRA, Metabolic Activation: NONE, Method: STANDARD PLATE
  mutagenic call: inactive; negative
Test System: E. COLI, Strain/Indicator: WP2UVRA, Metabolic Activation: RAT LIVER S-9, AROCLOR 1254, Method: PREINCUBATION
  mutagenic call: inactive; negative
Test System: E. COLI, Strain/Indicator: WP2UVRA, Metabolic Activation: RAT LIVER S-9, AROCLOR 1254, Method: STANDARD PLATE
  mutagenic call: inactive; negative
Test System: E. COLI, Strain/Indicator: WP2UVRA, Metabolic Activation: RAT, LIVER, S-9, AROCLOR 1254, Method: DIRECT PLATE
  mutagenic call: inactive; negative
Test System: E. COLI, Strain/Indicator: WP2UVRA, Metabolic Activation: RAT, LIVER, S-9, AROCLOR 1254, Method: PREINCUBATION
  mutagenic call: inactive; negative
Test System: E.COLI, Strain/Indicator: WP2UVRA, Metabolic Activation: NONE, Method: DIRECT PLATE
  mutagenic call: inactive; negative
Test System: MOUSE LYMPHOMA, Strain/Indicator: L5178Y (TK+/TK-), Metabolic Activation: RAT, LIVER, S-9, AROCLOR 1254, Method: SUSPENSION/PLATE
  mutagenic call: active; positive
Test System: MOUSE LYMPHOMA, Strain/Indicator: L5178Y(TK+/-), Metabolic Activation: NONE, Method: SUSPENSION/PLATE (4 H EXPOSURE)
  mutagenic call: active; positive
Test System: MOUSE LYMPHOMA, Strain/Indicator: L5178Y(TK+/-), Metabolic Activation: NONE, Method: SUSPENSION/PLATE (24 H EXPOSURE)
  mutagenic call: inactive; negative
Test System: MOUSE LYMPHOMA, Strain/Indicator: L5178Y(TK+/-), Metabolic Activation: RAT LIVER S-9, AROCLOR 1254, Method: SUSPENSION/PLATE
  mutagenic call: active; positive
